Test results taken from publication PMC10100968, “The Role of Glutamine Synthetase in Regulating Ammonium Assimilation and Iron-Only Nitrogenase Expression in a Photosynthetic Diazotroph” (Microbiology Spectrum, 2023).

Tests used:
GlnA1 [1] = biological target: T1, GlnA1 (Rhodopseudomonas palustris, UniProt Q6N5K7); experiment: gamma-glutamylhydroxamate formation, absorbance at […] nm; assay type: biochemical; conditions: 10 mM ATP, 40 mM MgSO4, 10 mM cysteine, 1 mM EDTA, pH 7.5, 30 °C, deadenylylated enzyme from nitrogen-limited cells
T1 construct: gene glnA; GSI dodecamer; adenylylated at Tyr398 when made in nitrogen-replete medium

GlnA1 [2] = biological target: T2, GlnA1 (Rhodopseudomonas palustris, UniProt Q6N5K7, Y398A); experiment: as above; assay type: biochemical; conditions: 10 mM ATP, 40 mM hydroxylamine, 40 mM MgSO4, 10 mM cysteine, 1 mM EDTA, pH 7.5, 30 °C; enzyme from LB-grown cells
T2 construct: gene glnA; GSI dodecamer; adenylylated at Tyr398 when made in nitrogen-replete medium
T2 sequence (Q6N5K7 entry or part of it Y398A): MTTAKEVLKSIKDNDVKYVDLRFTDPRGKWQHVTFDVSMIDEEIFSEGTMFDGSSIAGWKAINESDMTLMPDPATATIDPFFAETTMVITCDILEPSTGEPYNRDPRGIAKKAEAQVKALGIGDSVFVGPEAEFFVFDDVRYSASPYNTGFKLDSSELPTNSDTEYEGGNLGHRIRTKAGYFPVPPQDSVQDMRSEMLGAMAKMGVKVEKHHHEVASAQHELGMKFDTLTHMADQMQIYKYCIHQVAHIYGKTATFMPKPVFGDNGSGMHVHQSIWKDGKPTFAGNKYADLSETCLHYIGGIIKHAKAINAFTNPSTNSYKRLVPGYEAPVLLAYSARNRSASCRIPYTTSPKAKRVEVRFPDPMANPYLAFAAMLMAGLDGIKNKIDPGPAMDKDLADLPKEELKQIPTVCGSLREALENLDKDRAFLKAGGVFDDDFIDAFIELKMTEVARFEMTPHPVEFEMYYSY

T1 sequence (Q6N5K7 entry or part of it): as the sequence (Q6N5K7 entry or part of it Y398A) above, with A398Y counted along it

Row | Compound | specific activity (GlnA1 [1]; 10 mM L-glutamate) | specific activity (GlnA1 [2]) | specific activity (GlnA1 [1]; 40 mM hydroxylamine)
1 | NO [hydroxylamine] | A large proportion of GlnA1 was deadenylated via mass spectrometric analysis | – | –
2 | N[C@@H](CCC(=O)O)C(=O)O [l-glutamate] | – | GlnA1^Y398A purified from E. coli cells that were grown in LB medium showed a significantly | A large proportion of GlnA1 was deadenylated via mass spectrometric analysis
